From patent publication US20230382895A1, “CRYSTALLINE FORM III OF MELANOCORTIN RECEPTOR AGONIST COMPOUND AND PREPARATION METHOD THEREFOR” (LG CHEM, LTD., priority 2020, published 2023)
Entries after “also recorded” stand apart in the source; their conditions may differ. Counter-ions that a name gives are not always drawn.

Assay: Stability assessment by HPLC after storage under accelerated (40° C., 75% RH, open) or harsh (80° C., sealed) condition
Format: physicochemical
Details: for Stability (HPLC), Open AOC: open state, accelerated condition (40° C., 75% RH); for Stability (HPLC), Closed STR: sealed state, harsh condition, oven at 80° C.
Description: About 10-30 mg of the sample was stored for 4 weeks in an open state under the accelerated condition (40° C., 75% RH) or in a sealed state under the harsh condition in an oven at 80° C. [table]

Stability (HPLC), Initial (Initial, before storage, in % (unit assumed)): 99.68
Stability (HPLC), Open AOC (Week 2, in % (unit assumed)): 89.27
Stability (HPLC), Closed STR (Week 2, in % (unit assumed)): 99.11
Stability (HPLC), Open AOC (Week 4, in % (unit assumed)): 99.26
Stability (HPLC), Closed STR (Week 4, in % (unit assumed)): 98.76
SMILES: CC(C)C(=O)N([C@H]1C[C@@H](C(=O)N2CCOCC2)N(C(=O)[C@@H]2CN(C(C)(C)C)C[C@H]2c2ccc(Cl)cc2)C1)[C@H]1CC[C@@H](C)CC1 [Example 1, Is7-((3S,5S)-1-((3S,4R)-1-(tert-butyl)-4-(4-chlorophenyl)pyrrolidine-3-carbonyl)-5-(morpholine-4-carbonyl)pyrrolidin-3-yl)-N-((is, 4R)-4-methylcyclohexyl) isobutyramide hydrochloride]
Chemical stability for 4 weeks (4 weeks, accelerated condition (40° C., 75% RH) and harsh condition (80° C.), listed as crystalline form III, hydrochloride): showed chemical stability; also recorded: exhibited chemical stability
